Structures are written as SMILES.

The values that follow come from patent US11180474B2 (BRISTOL-MYERS SQUIBB COMPANY, priority 2016, dated 2021).

The target of this test is T1, human TLR8 (Homo sapiens, UniProt Q9NR97).
T1 construct: host or cells: HEK-Blue cells
T1 sequence (Q9NR97 27-1041): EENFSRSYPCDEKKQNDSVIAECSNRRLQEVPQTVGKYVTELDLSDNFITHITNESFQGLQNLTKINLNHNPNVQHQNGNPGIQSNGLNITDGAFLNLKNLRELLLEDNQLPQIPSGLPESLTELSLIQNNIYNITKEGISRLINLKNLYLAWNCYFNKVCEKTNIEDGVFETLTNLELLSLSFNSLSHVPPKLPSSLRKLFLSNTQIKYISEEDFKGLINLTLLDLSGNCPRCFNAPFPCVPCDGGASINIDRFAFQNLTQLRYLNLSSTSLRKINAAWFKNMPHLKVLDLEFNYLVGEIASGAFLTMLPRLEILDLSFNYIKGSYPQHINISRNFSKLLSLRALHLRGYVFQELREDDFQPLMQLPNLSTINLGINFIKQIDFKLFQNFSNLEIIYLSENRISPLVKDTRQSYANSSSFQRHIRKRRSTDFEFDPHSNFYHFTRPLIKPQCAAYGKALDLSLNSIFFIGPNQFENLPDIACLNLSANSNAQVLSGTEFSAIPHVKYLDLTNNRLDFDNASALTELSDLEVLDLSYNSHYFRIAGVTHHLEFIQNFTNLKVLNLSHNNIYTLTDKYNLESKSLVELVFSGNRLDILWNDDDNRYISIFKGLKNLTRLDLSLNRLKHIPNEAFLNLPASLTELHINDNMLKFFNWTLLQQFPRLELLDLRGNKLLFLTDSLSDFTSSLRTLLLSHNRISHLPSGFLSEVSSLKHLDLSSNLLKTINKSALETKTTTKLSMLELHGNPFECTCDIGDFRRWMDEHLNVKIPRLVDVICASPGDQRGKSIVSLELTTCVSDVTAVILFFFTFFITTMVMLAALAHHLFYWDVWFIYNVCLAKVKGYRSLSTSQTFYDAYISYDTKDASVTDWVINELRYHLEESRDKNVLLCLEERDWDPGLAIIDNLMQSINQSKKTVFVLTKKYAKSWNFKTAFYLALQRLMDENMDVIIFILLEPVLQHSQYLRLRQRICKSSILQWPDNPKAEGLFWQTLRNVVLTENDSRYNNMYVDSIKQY
Kind of test: TLR8 inhibition reporter assay (HEK-Blue cells, SEAP reporter, R848 stimulation). The test is classed as cell-based. The note with it: HEK-Blue cells overexpressing human TLR8, R848 15.9 μM. The procedure, abridged: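 Dose-response testing from 0.05 nM to 50 μM final was done on reporter cells for 22 hours at 37° C. Secreted SEAP was then detected, and inhibition was calculated as percent reduction of the agonist-plus-DMSO signal compared with wells given a known inhibitor.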
(In general: A reporter such as luciferase makes a cellular process visible.)
For `COc1ccc(-c2[nH]c3ccc(C4CCN(C(=O)COC(C)C)CC4)cc3c2C(C)C)cc1OC` [Example 314, 1-(4-(2-(3,4-dimethoxyphenyl)-3-isopropyl-1H-indol-5-yl)piperidin-1-yl)-2-isopropoxyethan-1-one], the IC50 was found to be 657 nM.

Turning to `COc1ccc(-c2[nH]c3ccc(C4CCN(C(=O)CN5CCCC(CO)C5)CC4)cc3c2C(C)C)cc1OC` (centres unmarked) [Example 226, 1-(4-(2-(3,4-dimethoxyphenyl)-3-isopropyl-1H-indol-5-yl)piperidin-1-yl)-2-(3-(hydroxymethyl)piperidin-1-yl)ethan-1-one], the IC50 was 17 nM.

For `COc1ccc(-c2[nH]c3ccc(C4CCN(CC(=O)N5CCCC(CO)C5)CC4)cc3c2C(C)C)cc1OC` (centres unmarked) [Example 275, 2-(4-(2-(3,4-dimethoxyphenyl)-3-isopropyl-1H-indol-5-yl)piperidin-1-yl)-1-(3-(hydroxymethyl)piperidin-1-yl)ethan-1-one], the IC50 was 22 nM.

Molecule `COc1ccc(-c2[nH]c3ccc(C4CCN(C(=O)CN5CCCC(CO)C5)CC4)cc3c2C(C)C)cc1OC` (centres unmarked) [Example 249, 1-(4-(2-(3,4-dimethoxyphenyl)-3-isopropyl-1H-indol-5-yl)piperidin-1-yl)-2-(3-(hydroxymethyl)piperidin-1-yl)ethan-1-one] came in with an IC50 of 17 nM.

`COc1ccc(-c2[nH]c3ccc(C4CCN(C(=O)CN5CCC[C@@H](C(=O)N6CC7CNCC7C6)C5)CC4)cc3c2C(C)C)cc1OC` (stereo partly drawn) [Example 310, 1-(4-(2-(3,4-dimethoxyphenyl)-3-isopropyl-1H-indol-5-yl)piperidin-1-yl)-2-((3R)-3-(octahydropyrrolo[3,4-c]pyrrole-2-carbonyl)piperidin-1-yl) ethan-1-one] came in with a half-maximal inhibitory concentration (IC50) of 488 nM.

Consider `COc1ccc(-c2[nH]c3ccc(C4CCN(C(=O)CN5CCC[C@H](C(=O)NC6(CO)CCCC6)C5)CC4)cc3c2C(C)C)cc1OC` [Example 296, (S)-1-(2-(4-(2-(3,4-dimethoxyphenyl)-3-isopropyl-1H-indol-5-yl)piperidin-1-yl)-2-oxoethyl)-N-(1-(hydroxymethyl)cyclopentyl)piperidine-3-carboxamide], for which half-maximal inhibition (IC50) required 22 nM.

For `COc1ccc(-c2[nH]c3ccc(C4CCN(C(=O)CN5CCN(CC(=O)NC(C)C)CC5)CC4)cc3c2C(C)C)cc1OC` [Example 229, 2-(4-(2-(4-(2-(3,4-dimethoxyphenyl)-3-isopropyl-1H-indol-5-yl)piperidin-1-yl)-2-oxoethyl)piperazin-1-yl)-N-isopropylacetamide], the IC50 is 43 nM.

For `COc1ccc(-c2[nH]c3ccc(C4CCN(Cc5cncn5C)CC4)cc3c2C(C)C)cc1OC` [Example 258, 2-(3,4-dimethoxyphenyl)-3-isopropyl-5-(1-((1-methyl-1H-imidazol-5-yl)methyl)piperidin-4-yl)-1H-indole], the IC50 was determined as 17 nM.

`COc1ccc(-c2[nH]c3ccc(C4CCN(Cc5nccn5C)CC4)cc3c2C(C)C)cc1OC` [Example 262, 2-(3,4-dimethoxyphenyl)-3-isopropyl-5-(1-((1-methyl-1H-imidazol-2-yl)methyl)piperidin-4-yl)-1H-indole]: it took 23 nM to reach half-maximal inhibition (IC50).

Molecule `COc1ccc(-c2[nH]c3ccc(C4CCN(C(=O)CN5CCC[C@H](C(=O)N6CCN(CCN7CCCC7)CC6)C5)CC4)cc3c2C(C)C)cc1OC` [Example 293, (S)-1-(4-(2-(3,4-dimethoxyphenyl)-3-isopropyl-1H-indol-5-yl)piperidin-1-yl)-2-(3-(4-(2-(pyrrolidin-1-yl)ethyl)piperazine-1-carbonyl)piperidin-1-yl)ethan-1-one] displayed an IC50 of 33 nM.

For `COc1ccc(-c2[nH]c3ccc(C4CCN(C(=O)CN5CCC[C@H](C(=O)NCC(N)=O)C5)CC4)cc3c2C(C)C)cc1OC` [Example 298, (S)—N-(2-amino-2-oxoethyl)-1-(2-(4-(2-(3,4-dimethoxyphenyl)-3-isopropyl-1H-indol-5-yl)piperidin-1-yl)-2-oxoethyl)piperidine-3-carboxamide], the concentration for half-maximal inhibition (IC50) was found to be 27 nM. The IC50 values of the last two molecules are within 1.5-fold of each other.

Turning to `COc1ccc(-c2[nH]c3ccc(C4CCN(C(=O)CN5CCCN(C)CC5)CC4)cc3c2C(C)C)cc1OC` [Example 239, 1-(4-(2-(3,4-dimethoxyphenyl)-3-isopropyl-1H-indol-5-yl)piperidin-1-yl)-2-(4-methyl-1,4-diazepan-1-yl)ethan-1-one], the IC50 turned out to be 17 nM.

Consider `COc1ccc(-c2[nH]c3ccc(C4CCN(C(=O)CN5CCC[C@@H](C(=O)N6CCCC6)C5)CC4)cc3c2C(C)C)cc1OC` [Example 303, (R)-1-(4-(2-(3,4-dimethoxyphenyl)-3-isopropyl-1H-indol-5-yl)piperidin-1-yl)-2-(3-(pyrrolidine-1-carbonyl)piperidin-1-yl)ethan-1-one], for which inhibition was half-maximal at 31 nM (IC50).

Consider `COc1ccc(-c2[nH]c3ccc(C4CCN(C(=O)CN5CCC(N(C)C)CC5)CC4)cc3c2C(C)C)cc1OC` [Example 244, 1-(4-(2-(3,4-dimethoxyphenyl)-3-isopropyl-1H-indol-5-yl)piperidin-1-yl)-2-(4-(dimethylamino)piperidin-1-yl)ethan-1-one], for which the IC50 amounted to 16 nM.

Molecule `COc1ccc(-c2[nH]c3ccc(C4CCN(C(=O)CNC5CCCC5O)CC4)cc3c2C(C)C)cc1OC` (centres unmarked) [Example 236, 1-(4-(2-(3,4-dimethoxyphenyl)-3-isopropyl-1H-indol-5-yl)piperidin-1-yl)-2-((2-hydroxycyclopentyl)amino)ethan-1-one] yielded an IC50 of 38 nM.

`COc1ccc(-c2[nH]c3ccc(C4CCN(CC(=O)NCCCO)CC4)cc3c2C(C)C)cc1OC` [Example 277, 2-(4-(2-(3,4-dimethoxyphenyl)-3-isopropyl-1H-indol-5-yl)piperidin-1-yl)-N-(3-hydroxypropyl)acetamide] yielded an IC50 of 37 nM.

`COc1ccc(-c2[nH]c3ccc(C4CCN(C(=O)CN5CCC[C@@H](C(=O)N6CCC(N(C)C)CC6)C5)CC4)cc3c2C(C)C)cc1OC` [Example 305, (R)-1-(4-(2-(3,4-dimethoxyphenyl)-3-isopropyl-1H-indol-5-yl)piperidin-1-yl)-2-(3-(4-(dimethylamino)piperidine-1-carbonyl)piperidin-1-yl)ethan-1-one] yielded a half-maximal inhibitory concentration (IC50) of 26 nM.

Molecule `COc1ccc(-c2[nH]c3ccc(C4CCNCC4O)cc3c2C(C)C)cc1OC` (single isomer, unassigned) [Example 317, 4-(2-(3,4-dimethoxyphenyl)-3-isopropyl-1H-indol-5-yl)piperidin-3-ol 2,2,2-trifluoroacetate] registered an IC50 of 82 nM.

Turning to `COc1ccc(-c2[nH]c3ccc(C4CCN(C(=O)CN5CCC[C@H](C(=O)N6CCN(C(C)=O)CC6)C5)CC4)cc3c2C(C)C)cc1OC` [Example 284, (S)-2-(3-(4-acetylpiperazine-1-carbonyl)piperidin-1-yl)-1-(4-(2-(3,4-dimethoxyphenyl)-3-isopropyl-1H-indol-5-yl)piperidin-1-yl)ethan-1-one], the half-inhibitory concentration (IC50) stood at 25 nM.

`COc1ccc(-c2[nH]c3ccc(C4CCN(C(=O)CN5CCC[C@H](C(=O)N6C(C)CCC6C)C5)CC4)cc3c2C(C)C)cc1OC` (stereo partly drawn) [Example 300, 1-(4-(2-(3,4-dimethoxyphenyl)-3-isopropyl-1H-indol-5-yl)piperidin-1-yl)-2-((3S)-3-(2,5-dimethylpyrrolidine-1-carbonyl)piperidin-1-yl)ethan-1-one]: half-maximal inhibition (IC50) was put at 70 nM.

In turn, `COc1ccc(-c2[nH]c3ccc(C4CCN(C(=O)CN(C)C(C)C)CC4)cc3c2C(C)C)cc1OC` [Example 227, 1-(4-(2-(3,4-dimethoxyphenyl)-3-isopropyl-1H-indol-5-yl)piperidin-1-yl)-2-(isopropyl(methyl)amino) ethan-1-one] gave a 50% inhibitory concentration (IC50) of 24 nM.

Consider `COc1ccc(-c2[nH]c3ccc(C4CCNCC4O)cc3c2C(C)C)cc1OC` (single isomer, unassigned) [Example 318, 4-(2-(3,4-dimethoxyphenyl)-3-isopropyl-1H-indol-5-yl)piperidin-3-ol 2,2,2-trifluoroacetate], for which the IC50 amounted to 6070 nM. This IC50 lies about 250-fold higher than the previous one.

Molecule `COc1ccc(-c2[nH]c3ccc(C4CCN(C(=O)CNCCC(C)O)CC4)cc3c2C(C)C)cc1OC` (centres unmarked) [Example 237, 1-(4-(2-(3,4-dimethoxyphenyl)-3-isopropyl-1H-indol-5-yl)piperidin-1-yl)-2-((3-hydroxybutyl)amino)ethan-1-one] came in with a 50% inhibitory concentration (IC50) of 22 nM.

As usually defined, the IC50 is the concentration that inhibits the measured activity by half. The low end stands for greater potency in that assay, the high end for weaker potency in that assay.
